Results from ChEMBL document CHEMBL1137496, “Inactivation of soybean sterol 24-C-methyltransferase by elongated sterol side chains at C26” (Bioorg Med Chem Lett, 2007).

T1: S-adenosyl-L-methionine:delta24-sterol-C-methyltransferase (Glycine max) (UniProt Q43445)
T1 sequence (whole entry): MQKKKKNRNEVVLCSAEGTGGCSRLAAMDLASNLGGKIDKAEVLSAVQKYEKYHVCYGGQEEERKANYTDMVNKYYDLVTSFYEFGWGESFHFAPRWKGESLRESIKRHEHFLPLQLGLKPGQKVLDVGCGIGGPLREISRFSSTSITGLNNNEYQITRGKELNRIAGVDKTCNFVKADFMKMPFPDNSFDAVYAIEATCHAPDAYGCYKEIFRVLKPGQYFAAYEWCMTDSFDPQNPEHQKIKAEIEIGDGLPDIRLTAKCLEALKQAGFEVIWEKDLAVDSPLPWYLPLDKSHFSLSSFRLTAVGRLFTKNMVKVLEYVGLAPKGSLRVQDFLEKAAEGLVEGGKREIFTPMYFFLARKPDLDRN

T2: S-adenosyl-L-methionine:delta24-sterol-C-methyltransferase (Glycine max, UniProt Q43445)
T2 sequence (Q43445 whole entry): T1 sequence (whole entry)

B1: S-adenosyl-L-methionine:delta24-sterol-C-methyltransferase (Glycine max), Q43445 (protein)
chain: T1 sequence (whole entry)

Tests used:
[1] = target: T1, S-adenosyl-L-methionine:delta24-sterol-C-methyltransferase (Glycine max); test: Ratio of Kcat to Kinact for soybean recombinant SMT expressed in Escherichia coli
[2] = target: T1, S-adenosyl-L-methionine:delta24-sterol-C-methyltransferase (Glycine max); test: (§1) Inhibition of soybean recombinant SMT expressed in Escherichia coli
[3] = target: T2, S-adenosyl-L-methionine:delta24-sterol-C-methyltransferase; test: as §1
[4] = target: T1, S-adenosyl-L-methionine:delta24-sterol-C-methyltransferase (Glycine max); test: Inhibition of soybean recombinant SMT expressed in Escherichia coli assessed as C-methylation in presence of 50 uM cycloartenol substrate; parameters: scale not given: the % may be the effect or the level left
[5] = target: T1, S-adenosyl-L-methionine:delta24-sterol-C-methyltransferase (Glycine max); test: Inhibition of soybean recombinant SMT expressed in Escherichia coli assessed as C-methylation in presence of 100 uM cycloartenol substrate; parameters: scale not given: the % may be the effect or the level left
[6] = substrate: C=C/C(C)=C/CCC(C)[C@H]1CC[C@@]2(C)[C@@H]3CC[C@H]4C(C)(C)[C@@H](O)CCC45CC35CC[C@]12C; test: (§2) Activity of soybean recombinant SMT expressed in Escherichia coli; conditions: Glycine max
[7] = substrate: C#C/C(C)=C/CCC(C)[C@H]1CC[C@@]2(C)[C@@H]3CC[C@H]4C(C)(C)[C@@H](O)CCC45CC35CC[C@]12C; test: as §2; conditions: Glycine max

| Molecule | Ratio [1] | Kinact [2] [min⁻¹] | Ki [3] [µM] | also measured |
| --- | --- | --- | --- | --- |
| C#C/C(C)=C/CCC(C)[C@H]1CC[C@@]2(C)[C@@H]3CC[C@H]4C(C)(C)[C@@H](O)CCC45CC35CC[C@]12C (stereo partly specified) | 0.001 | 0.06 | – | IC50 [3]: 67 µM |
| CC(C)SCC[C@@H](C)[C@H]1CC[C@@]2(C)[C@@H]3CC[C@H]4C(C)(C)[C@@H](O)CCC45CC35CC[C@]12C (stereo partly specified) | – | 0.3 | 2 | – |
| C=C/C(C)=C/CCC(C)[C@H]1CC[C@@]2(C)[C@@H]3CC[C@H]4C(C)(C)[C@@H](O)CCC45CC35CC[C@]12C (stereo partly specified) | 0.001 | 0.24 | 47 | Activity [4]: 25%; Activity [5]: 45% |
| CC(C)=CCC[C@@H](C)[C@H]1CC[C@@]2(C)[C@@H]3CC[C@H]4C(C)(C)[C@@H](O)CCC45CC35CC[C@]12C (stereo partly specified) | – | 0.29 | 42 | – |
| B1 | – | – | – | Km [6]: 5 µM; kcat [6]: 5e-06 s⁻¹; Km [7]: 2 µM; kcat [7]: 8.33e-07 s⁻¹ |
